# Reference: patent publication US10689423B2, “CTLA4-binding protein peptide-linker masks” (City of Hope, priority 2015, dated 2020)
# Bridge positions count the residues as written; N and C are the ends. Peptide text beside a SMILES is read from it.
# Tests used:
# mLcn2 = target: T1, mLcn2 (Homo sapiens, UniProt P80188, A60R/C107S/D67H/D97E/E64D/F91S/G122D/H138Y/K145L/K154A/K66Q/K70N/K93H/L123K/L157I/L90I/M140V/N134D/P121G/Q148D/Q48H/Q69M/R101A/R150A/R92S/S147E/T165A/V146A/W99T/Y152F); assay: SPR of analyte mLcn2 flowed over immobilized Peptide16; format: binding
# T1 construct: made in house; host or cells: bacteria
# Description: FIG. 14A: mLCN2 vs. Pep16. Surface plasmon resonance of analyte mLcn2 flowed over ligand Peptide16 immobilized to a CM5 chip. Representative results are shown from three independent experiments.
# (§1) The sequence of mLcn2 was obtained from the PDB, synthesized and produced in bacteria. Peptides that specifically bind to mLcn2 were identified using a cyclic 7-mer library. Positive leads were identified and sequencing of these hits indicated an overall pattern in the sequences. To further characterize the lead peptides and to ensure the peptides bound to the same site as CTLA, a competition ELISA was performed using all leads (FIG. 2A). Based on this analysis, two cyclic peptides were chosen, chemically synthesized, and characterized by SPR (FIG. 2B) and crystallography. Well diffracting crystals were obtained for both complexes (1.95 and 2.15 Å) and refined (R/Rfree of 18.0/22.5% and 16.5/18.5% and no Ramachandran outliers). […] Design of the linker was aided by examination of the crystal structure of lipocalin.
# [1] = most common major toxicity; cited from earlier work
# Lcn2-Fc = assay: Phage competition ELISA of surface-bound peptides on immobilized Lcn2-Fc; format: binding; conditions: compared to Lcn2-Fc pre-complexed with CTLA4-Fc or PBS control
# Description: FIGS. 2A and 2B: Identification and characterization of a peptide (CTLA-4 binding domain masking peptide) blocking binding of mLcn2 (CTLA-4 binding domain) to CTLA-4. […] FIG. 2B is a graph showing surface plasmon resonance traces of analyte mLcn2-Fc flowed over ligand Peptide 16 immobilized to a CM5 chip.
# FIG. 10B: ELISA results of bacteriophage library after three rounds of enrichment. Wells in a 96-well plate were immobilized with mLcn2-Fc (left column), mLcn2-Fc pre-complexed with CTLA-4-Fc (middle column), or PBS (right column). Each condition was performed in triplicate.
# FIGS. 12A-12D: 18 min substrate incubation. […] FIG. 12A is a graph showing Clone 1—YGLGFNF (SEQ ID NO:52); FIG. 12B is a graph showing Clone 2—RIDETLQ (SEQ ID NO:53); FIG. 12C is a graph showing Clone 3—FTPWPEA (SEQ ID NO:54); and FIG. 12D is a graph showing Clone 4—WPEWDLW (SEQ ID NO:55).
# FIGS. 13A-13D: 18 min substrate incubation. […] FIG. 13A is a graph showing clone 6—EKWFRFM (SEQ ID NO:56); FIG. 13B is a graph showing clone 8—YLELMHS (SEQ ID NO:57); FIG. 13C is a graph showing clone 12—SVLPPFM (SEQ ID NO:58); FIG. 13D is a graph showing clone 16—WSPLPFM (SEQ ID NO:59).
# as §1
# mLcn2-Fc = assay: SPR of analyte mLcn2-Fc flowed over immobilized Peptide12; format: binding; conditions: peptide immobilized on CM5 chip, three independent experiments
# Description: FIG. 14B: mLCN2-Fc vs. Pep12. Surface plasmon resonance of analyte mLcn2-Fc flowed over ligand Peptide12 immobilized to a CM5 chip. Representative results are shown from three independent experiments.
# as §1
Molecule,phage binding to immobilized Lcn2-Fc by ELISA (Lcn2-Fc),also measured
"CSCC[C@@H]1NC(=O)[C@H](Cc2ccccc2)NC(=O)[C@@H]2CCCN2C(=O)[C@H](CC(C)C)NC(=O)[C@@H]2CCCN2C(=O)[C@H](CO)NC(=O)[C@H](Cc2c[nH]c3ccccc23)NC(=O)[C@@H](N)CSSC[C@@H](C(=O)O)NC1=O [Peptide 16, CWSPLPFMC] (H-CWSPLPFMC-OH; disulfide 1-9)",,Kd (mLcn2): 4.6 µM
ipilimumab,,patients affected by enterocolitis [1]: approximately 20%
CSVLPPFMC [Peptide 12],increased binding to immobilized Lcn2-Fc,Kd (mLcn2-Fc): 3.4 µM
CEKWFRFMC [Peptide 6],increased binding to immobilized Lcn2-Fc,
CWPEWDLWC [Peptide 4],increased binding to immobilized Lcn2-Fc,
CYGLGFNFC [Peptide 1],increased binding to immobilized Lcn2-Fc,
CYLELMHSC [Peptide 8],increased binding to immobilized Lcn2-Fc,
CFTPWPEAC [Peptide 3],increased binding to immobilized Lcn2-Fc,
CRIDERLQC [Peptide 2],increased binding to immobilized Lcn2-Fc,
